Source: PubChem BioAssay AID2060506 (Molecular Pharmacology Branch, DTP, NCI, 2025)

Tested on: 598228-144-R-J1-PDC complex spheroid viability
Assay: Anticancer human tumor 598228-144-R-J1-PDC patient-derived serous endometrial adenocarcinoma cell line growth inhibition [GQUAD]
Details: for IC50: curve of first compound; for viability, T/C: stronger effect = lower value
How it was run: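 Tumor cells were grown as complex spheroids with HUVEC endothelial cells and mesenchymal stem cells as stroma. G-quadruplex stabilizers were combined with targeted agents over half-log dilutions from near the clinical Cmax, or from 10 microM.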

[1] = second compound 0.0316 µM, first compound 0.0316 µM
[2] = second compound 0.0316 µM, first compound 0.1 µM
[3] = second compound 0.0316 µM, first compound 0.316 µM
[4] = second compound 0.0316 µM, first compound 1 µM
[5] = second compound 0.0316 µM, first compound 3.16 µM
[6] = second compound 0.0316 µM, first compound 10 µM
[7] = second compound 0.1 µM, first compound 0.0316 µM
[8] = second compound 0.1 µM, first compound 0.1 µM
[9] = second compound 0.1 µM, first compound 0.316 µM
[10] = second compound 0.1 µM, first compound 1 µM
[11] = second compound 0.1 µM, first compound 3.16 µM
[12] = second compound 0.1 µM, first compound 10 µM
[13] = second compound 0.316 µM, first compound 0.0316 µM
[14] = second compound 0.316 µM, first compound 0.1 µM
[15] = second compound 0.316 µM, first compound 0.316 µM
[16] = second compound 0.316 µM, first compound 1 µM
[17] = second compound 0.316 µM, first compound 3.16 µM
[18] = second compound 0.316 µM, first compound 10 µM
[19] = second compound 1 µM, first compound 0.0316 µM
[20] = second compound 1 µM, first compound 0.1 µM
[21] = second compound 1 µM, first compound 0.316 µM
[22] = second compound 1 µM, first compound 1 µM
[23] = second compound 1 µM, first compound 3.16 µM
[24] = second compound 1 µM, first compound 10 µM
[25] = second compound 3.16 µM, first compound 0.0316 µM
[26] = second compound 3.16 µM, first compound 0.1 µM
[27] = second compound 3.16 µM, first compound 0.316 µM
[28] = second compound 3.16 µM, first compound 1 µM
[29] = second compound 3.16 µM, first compound 3.16 µM
[30] = second compound 3.16 µM, first compound 10 µM
[31] = second compound 10 µM, first compound 0.0316 µM
[32] = second compound 10 µM, first compound 0.1 µM
[33] = second compound 10 µM, first compound 0.316 µM
[34] = second compound 10 µM, first compound 1 µM
[35] = second compound 10 µM, first compound 3.16 µM
[36] = second compound 10 µM, first compound 10 µM
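Further: spheroids exposed to the agents for one week before reading.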
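Wherever viability, T/C is given: percent of vehicle DMSO control viability so 100% = untreated growth.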

CC1COCCN1c1cc(-c2ccnn2C)c2ccnc(-c3ccn[nH]3)c2n1 (centres undefined) + Cc1cnc(CNC(=O)c2c(=O)c3ccc(N4CCCN(C)CC4)nc3n3c2sc2ccccc23)cn1
IC50 (second compound 0.0316 µM): 56.5 nM | IC50 (second compound 0.1 µM): < 31.6 nM | IC50 (second compound 0.316 µM): 66 nM | IC50 (second compound 1 µM): 38.7 nM | IC50 (second compound 3.16 µM): < 31.6 nM | IC50 (second compound 10 µM): < 31.6 nM | viability, T/C [1]: 52% | viability, T/C [2]: 48.3% | viability, T/C [3]: 44.7% | viability, T/C [4]: 29.7% | viability, T/C [5]: 33.5% | viability, T/C [6]: 30.9% | viability, T/C [7]: 47.9% | viability, T/C [8]: 38.4% | viability, T/C [9]: 43% | viability, T/C [10]: 33.2% | viability, T/C [11]: 38.3% | viability, T/C [12]: 25.8% | viability, T/C [13]: 58.2% | viability, T/C [14]: 40.6% | viability, T/C [15]: 42.9% | viability, T/C [16]: 32.5% | viability, T/C [17]: 39.1% | viability, T/C [18]: 21.3% | viability, T/C [19]: 52.3% | viability, T/C [20]: 42% | viability, T/C [21]: 43.2% | viability, T/C [22]: 33% | viability, T/C [23]: 28.2% | viability, T/C [24]: 22.2% | viability, T/C [25]: 45.8% | viability, T/C [26]: 26.1% | viability, T/C [27]: 33.6% | viability, T/C [28]: 23.4% | viability, T/C [29]: 20.7% | viability, T/C [30]: 4.32% | viability, T/C [31]: 23.5% | viability, T/C [32]: 17.4% | viability, T/C [33]: 8.76% | viability, T/C [34]: 6.24% | viability, T/C [35]: 0.97% | viability, T/C [36]: 8.07%

O=C(NO)c1cnc(N2CCN(S(=O)(=O)c3ccc4ccccc4c3)CC2)nc1 + CN(C)c1ccc(Nc2c3ccc(NC(=O)CCN4CCCC4)cc3nc3cc(NC(=O)CCN4CCCC4)ccc23)cc1
IC50 (second compound 0.0316 µM): 72.9 nM | IC50 (second compound 0.1 µM): 104 nM | IC50 (second compound 0.316 µM): 100 nM | IC50 (second compound 1 µM): 125 nM | IC50 (second compound 3.16 µM): 83.2 nM | IC50 (second compound 10 µM): 52.6 nM | viability, T/C [1]: 79.4% | viability, T/C [2]: 35.2% | viability, T/C [3]: 26.3% | viability, T/C [4]: 0.43% | viability, T/C [5]: 0.48% | viability, T/C [6]: 0.27% | viability, T/C [7]: 87.8% | viability, T/C [8]: 49.5% | viability, T/C [9]: 24% | viability, T/C [10]: 0.39% | viability, T/C [11]: 0.39% | viability, T/C [12]: 0.25% | viability, T/C [13]: 81.3% | viability, T/C [14]: 49.5% | viability, T/C [15]: 18.3% | viability, T/C [16]: 0.5% | viability, T/C [17]: 0.26% | viability, T/C [18]: 0.42% | viability, T/C [19]: 92.3% | viability, T/C [20]: 56.6% | viability, T/C [21]: 21.2% | viability, T/C [22]: 0.43% | viability, T/C [23]: 0.22% | viability, T/C [24]: 0.38% | viability, T/C [25]: 108% | viability, T/C [26]: 38.9% | viability, T/C [27]: 8.39% | viability, T/C [28]: 0.37% | viability, T/C [29]: 0.29% | viability, T/C [30]: 0.29% | viability, T/C [31]: 73.7% | viability, T/C [32]: 19.8% | viability, T/C [33]: 5.5% | viability, T/C [34]: 0.39% | viability, T/C [35]: 0.39% | viability, T/C [36]: 0.34%
